Here are results for twelve molecules from patent US20060160894A1, “Benzamides as ppar modulators” (LABORATORIOS S.A.L.V.A.T.,S.A., priority 2003, published 2006).

The structures appear in SMILES notation. Read-outs that look alike come from different tables or passages of the source.

One experiment addresses T1, GST-hPPARγ2 (Homo sapiens, UniProt P37231).
T1 construct: the complete cDNA of the […] human PPARs were cloned into pGEX4T2; made in house; host or cells: Escherichia coli BL21 (DE3)
T1 sequence (P37231 1-505): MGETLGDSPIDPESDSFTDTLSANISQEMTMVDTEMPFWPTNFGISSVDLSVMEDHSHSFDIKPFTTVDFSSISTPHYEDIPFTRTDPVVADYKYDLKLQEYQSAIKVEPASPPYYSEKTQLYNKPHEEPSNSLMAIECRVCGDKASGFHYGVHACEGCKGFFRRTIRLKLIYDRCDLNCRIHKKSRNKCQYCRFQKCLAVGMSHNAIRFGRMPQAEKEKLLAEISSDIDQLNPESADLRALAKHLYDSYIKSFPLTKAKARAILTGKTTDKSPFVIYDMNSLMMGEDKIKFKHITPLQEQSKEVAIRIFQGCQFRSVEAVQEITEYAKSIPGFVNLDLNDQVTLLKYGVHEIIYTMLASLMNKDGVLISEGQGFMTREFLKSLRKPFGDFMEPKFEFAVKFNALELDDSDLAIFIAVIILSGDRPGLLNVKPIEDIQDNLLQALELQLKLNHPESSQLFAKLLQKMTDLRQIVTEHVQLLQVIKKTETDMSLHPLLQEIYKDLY
The experiment can be described thus: Assay of binding to the PPARγ2 ([3H]BRL-49853 displacement). As to the method:
Assay of Binding to the PPARγ2
The cDNA encoding for the open reading frame of the hPPARγ2 is amplified by PCR (polymerase chain reaction) and inserted in the plasmid pGEX-4T-2.
The reaction mixture was transferred to a Multiscreen Durapore (Millipore) microplate containing glutathione-Sepharose 4B in every well. The reaction mixture was left to incubate with the resin during 10 min, and then centrifuged at 735 g during 2 min. To dissociate the receptor bound to the resin, reduced glutathione 10 mM is added and incubated during 10 min. The receptor was eluted by centrifugation. Then, 800 μL of scintillation liquid were added to the elution and the contained radioactivity was quantified by liquid scintillation spectroscopy (Microbeta Wallac, Perkin Elmer).

Another experiment has as its target T2, PPARγ LBD (Homo sapiens, UniProt P37231).
T2 construct: expressed in transfected cells; host or cells: COS-7
T2 sequence (P37231 238-503 limits assumed): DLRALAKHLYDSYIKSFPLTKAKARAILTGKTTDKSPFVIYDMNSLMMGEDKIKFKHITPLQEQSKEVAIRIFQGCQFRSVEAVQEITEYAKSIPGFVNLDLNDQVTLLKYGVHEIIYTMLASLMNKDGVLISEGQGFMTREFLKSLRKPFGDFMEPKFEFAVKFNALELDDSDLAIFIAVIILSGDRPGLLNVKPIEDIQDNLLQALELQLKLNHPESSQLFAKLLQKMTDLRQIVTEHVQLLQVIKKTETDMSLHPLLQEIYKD
Briefly: LBD-hPPARs transactivation assay (GAL4-LBD luciferase reporter in COS-7 cells). The class given is cell-based. Conditions: 48 h. The source says:
LBD-hPPARs Transactivation Assay
COS-7 cells were cultivated in 24-well plates and transfected with the pFACMV plasmids that encode the chimeric proteins containing the GAL4 DNA binding domain fused to the PPARγ LBD. The reporter plasmid for the foregoing constructions was pFR-Luc, which contains five repetitions of the GAL4-response element in front of a promoter that controls the transcription of the luciferase gene. Lipofectamine was used as a transfection agent.
The plasmids of the chimeric receptors and the reporter gene were inserted in the cells by transitory transfection in COS-7 cells in culture.
(In a reporter assay the amount or activity of a reporter protein is the signal.)

A further experiment concerns the target T3, GST-hPPARα (Homo sapiens, UniProt Q07869).
T3 construct: the complete cDNA of the […] human PPARs were cloned into pGEX4T2; made in house; host or cells: Escherichia coli BL21 (DE3)
T3 sequence (Q07869 1-468): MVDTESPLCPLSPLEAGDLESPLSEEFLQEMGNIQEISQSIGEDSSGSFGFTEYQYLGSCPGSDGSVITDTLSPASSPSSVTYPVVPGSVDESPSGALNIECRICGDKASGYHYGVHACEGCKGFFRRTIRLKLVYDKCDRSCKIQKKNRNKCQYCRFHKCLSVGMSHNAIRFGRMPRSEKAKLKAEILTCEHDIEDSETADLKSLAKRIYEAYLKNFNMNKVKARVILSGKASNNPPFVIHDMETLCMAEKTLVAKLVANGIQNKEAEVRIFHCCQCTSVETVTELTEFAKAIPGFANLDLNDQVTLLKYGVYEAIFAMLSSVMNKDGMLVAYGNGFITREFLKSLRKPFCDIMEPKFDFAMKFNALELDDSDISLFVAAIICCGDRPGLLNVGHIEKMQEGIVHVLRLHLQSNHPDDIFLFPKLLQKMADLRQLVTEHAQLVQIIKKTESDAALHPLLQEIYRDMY
Briefly: GST-hPPARα binding ([3H]-GW2433 displacement). The source says:
Cloning of Human PPARα, PPARδ and PPARγ2
The human PPARs cDNAs were amplified through RT-PCR. For hPPARα, RNA was obtained from HepG2 cells treated with linoleic acid; for h PPARδ, RNA was obtained from untreated HepG2 cells; for hPPARγ2, RNA was obtained from human white adipose tissue. Each amplified fragment was cloned into pBluescript (Stratagene®) and sequenced. One clone for each construction was selected and used as template for further subcloning and PCR amplifications.
GST-Fused Protein Construction
To generate these chimeric proteins, the complete cDNA of the […] human PPARs were cloned into pGEX4T2 (Amersham Biosciences). The fragment was obtained from the pBluescript-cDNAs clones digested with endonucleases. To assess the plasmid identity and to ensure the in-phase cloning of the proteins, pGEXs constructions were sequenced. […] Receptor purity was visualized by SDS-PAGE and protein content was determined by Bradford method. […]
Using 96-well culture plates, PPARα or PPARδ (5 μg) were diluted to a total volume of 100 μL with buffer consisting of 50 mM HEPES (pH: 7.0), 50 mM KCl, 5 mM EDTA and 10 mM DTT, in the presence of [3H]-GW2433 (100 and 50 nM for PPARα and PPARδ, respectively). […] Eluted radioactivity was quantitated by liquid scintillation counting in a Microbeta counter (Perkin Elmer).

The mark [1] stands for this setting: Table 19, GST-hPPARγ2, [3H]BRL-49853 100 nM, read-out: Affinity PPARγ(1).

With `CCCCc1ccc(COc2ccc(C(=O)N(CCC(=O)O)Cc3cccc(OCc4ccccc4)c3)cc2)cc1` [Example 218, 3-{(3-Benzyloxybenzyl)-[4-(4-butylbenzyloxy)benzoyl]amino}propionic acid], the Ki on GST-hPPARγ2 (setting [1]) is under 1 µM. For the same molecule, on PPARγ LBD, the “Functional activity PPARγ” value is on record as “Antagonist”.
Take `CCCCc1ccc(COc2ccc(C(=O)N[C@@H](CC3CCCCC3)C(=O)O)cc2)cc1` [Example 210, (2S)-2-[4-(4-Butylbenzyloxy)benzoylamino]-3-cyclohexylpropionic acid]: the Ki on GST-hPPARγ2 (setting [1]) was under 1 µM. Moreover, at PPARγ LBD, the “Functional activity PPARγ” value is on record as “Agonist”.
The corresponding values for `COC(=O)[C@H](Cc1ccc(OCc2ccccc2)cc1)NC(=O)c1ccc(OCCOc2cccc3cccnc23)cc1` [Example 98, (2S)-3-(4-Benzyloxyphenyl)-2-{4-[2-(quinolin-8-yloxy)ethoxy]-benzoylamino}propionic acid methyl ester] are under 1 µM and “Antagonist”.
For `O=C(NC(Cc1cccc(Oc2ccccc2)c1)C(=O)O)c1ccc(OCCN(Cc2ccccc2)Cc2ccccc2)cc1` (stereo not shown) [Example 141, 2-[4-(2-Dibenzylaminoethoxy)benzoylamino]-3-(3-phenoxyphenyl)propionic acid], in that order: 1 to 3 µM and “Antagonist”.
As for `O=C(N[C@@H](Cc1ccc(OCc2ccccc2)cc1)C(=O)O)c1ccc(OCCOc2cccc(Br)c2)cc1` [Example 161, (2S)-3-(4-Benzyloxyphenyl)-2-{4-[2-(3-bromophenoxy)ethoxy]benzoylamino}propionic acid], the Ki on GST-hPPARγ2 (setting [1]) is 1 to 3 µM. For the same molecule, at PPARγ LBD, the “Functional activity PPARγ” value is recorded as “Antagonist”.
For `O=C(O)CN(Cc1cccc(Oc2ccccc2)c1)C(=O)c1ccc(OCCN(Cc2ccccc2)Cc2ccccc2)cc1` [Example 146, {[4-(2-Dibenzylaminoethoxy)benzoyl]-(3-phenoxybenzyl)amino}acetic acid], in that order: 1 to 3 µM and “Antagonist”.
In the case of `CCCCOc1ccc(COc2ccc(C(=O)N[C@@H](CC3CCCCC3)C(=O)O)cc2)cc1` [Example 237, (2S)-2-[4-(4-Butoxybenzyloxy)benzoylamino]-3-cyclohexylpropionic acid], the Ki on GST-hPPARγ2 (setting [1]) is under 1 µM. The “Functional activity PPARγ” value at PPARγ LBD was “Partial agonist”.
The corresponding values for `Cc1ccccc1COc1ccc(C(=O)N[C@@H](Cc2ccc(OCc3ccccc3)cc2)C(=O)O)cc1` [Example 243, (2S)-3-(4-Benzyloxyphenyl)-2-[4-(2-methylbenzyloxy)benzoylamino]propionic acid] are under 1 µM and “Antagonist”.
The corresponding values for `O=C(N[C@@H](Cc1ccc(OCc2ccccc2)cc1)C(=O)O)c1cccc(OCc2ccc(-c3ccccc3)cc2)c1` [Example 187, (2S)-3-(4-Benzyloxyphenyl)-2-[3-(biphenyl-4-ylmethoxy)benzoylamino]propionic acid] are under 1 µM and “Agonist”.
On to `O=C(N[C@@H](Cc1ccc(OCc2ccccc2)cc1)C(=O)O)c1ccc(OCc2ccccc2-c2ccccc2)cc1` [Example 184, (2S)-3-(4-Benzyloxyphenyl)-2-[4-(biphenyl-2-ylmethoxy)benzoylamino]propionic acid], for which the Ki at GST-hPPARα was over 3 µM; at GST-hPPARγ2 it was under 1 µM. Moreover, the “Functional activity PPARγ” value on PPARγ LBD is given as “Antagonist”.
As for `O=C(N[C@@H](Cc1ccc(OCc2ccccc2)cc1)C(=O)O)c1ccc(OCc2ccc(OCc3ccccc3)cc2)cc1` [Example 183, (2S)-2-[4-(4-Benzyloxybenzyloxy)benzoylamino]-3-(4-benzyloxyphenyl)propionic acid], the Ki on GST-hPPARγ2 (setting [1]) was under 1 µM. Also, the “Functional activity PPARγ” value at PPARγ LBD is listed as “Partial agonist”.
For `Cc1nc2ccccc2nc1OCCOc1cccc(C(=O)N[C@@H](Cc2ccc(OCc3ccccc3)cc2)C(=O)O)c1` [Example 180, (2S)-3-(4-Benzyloxyphenyl)-2-{3-[2-(3-methylquinoxalin-2-yloxy)ethoxy]benzoylamino}propionic acid], in that order: under 1 µM and “Partial agonist”.
